What was measured:
Assay in all cases: competitive isoTOP-ABPP
Type in all cases: binding
[1] = target: T1, AP1G1 AP-1 complex subunit gamma-1 (Homo sapiens, UniProt O43747); conditions: for R value (DMSO/fragment) for probe 1 labeling: O43747_K214; for R value (DMSO/fragment) for probe 1 labeling / isoTOP-ABPP ratio (R) at liganded lysine O43747_K214 / isoTOP-ABPP reactivity ratio at lysine O43747_K214: 50 uM, in vitro; for R value (DMSO/fragment) for probe 1 labeling / isoTOP-ABPP reactivity ratio at lysine O43747_K214: 231 sol; for isoTOP-ABPP ratio (R) at liganded lysine O43747_K214: sol, 231
T1 construct: isoTOP-ABPP experiments performed in cell lysates (in vitro); endogenous in cells; host or cells: MDA-MB-231 soluble lysate
T1 sequence (O43747 1-822): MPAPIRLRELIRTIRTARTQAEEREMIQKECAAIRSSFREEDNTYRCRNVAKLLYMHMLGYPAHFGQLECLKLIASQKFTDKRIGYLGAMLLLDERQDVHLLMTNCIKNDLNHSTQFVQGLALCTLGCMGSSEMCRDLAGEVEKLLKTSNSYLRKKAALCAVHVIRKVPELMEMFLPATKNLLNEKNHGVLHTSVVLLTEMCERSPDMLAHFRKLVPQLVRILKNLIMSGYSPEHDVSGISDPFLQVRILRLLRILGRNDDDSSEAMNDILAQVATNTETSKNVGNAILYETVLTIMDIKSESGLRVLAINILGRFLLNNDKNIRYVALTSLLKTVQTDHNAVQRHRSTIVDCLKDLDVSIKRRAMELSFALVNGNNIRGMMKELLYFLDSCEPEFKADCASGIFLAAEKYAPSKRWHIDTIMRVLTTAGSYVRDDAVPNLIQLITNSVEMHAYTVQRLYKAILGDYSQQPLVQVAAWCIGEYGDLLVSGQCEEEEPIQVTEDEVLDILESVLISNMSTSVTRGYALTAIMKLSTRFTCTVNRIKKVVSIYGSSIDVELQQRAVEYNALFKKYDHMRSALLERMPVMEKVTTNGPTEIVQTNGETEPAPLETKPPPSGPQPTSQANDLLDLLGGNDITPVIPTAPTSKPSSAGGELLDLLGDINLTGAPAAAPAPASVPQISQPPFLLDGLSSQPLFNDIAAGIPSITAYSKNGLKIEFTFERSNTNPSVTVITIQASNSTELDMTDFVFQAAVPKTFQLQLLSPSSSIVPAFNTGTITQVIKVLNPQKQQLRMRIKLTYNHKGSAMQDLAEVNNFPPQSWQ
In short: (§1)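 Readout: isotopic light/heavy MS1 peak-area ratio (R, DMSO heavy over compound light), median across peptides sharing a modified lysine. Lysate received fragment (activated esters 50 μM, guanidinylating agents 100 μM final) or DMSO, then 0.1 mM STP-alkyne probe for 1 h at ambient temperature.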

[2] = target: T2, RINT1 RAD50-interacting protein 1 (Homo sapiens, UniProt Q6NUQ1); conditions: for R value (DMSO/fragment) for probe 1 labeling: Q6NUQ1_K771; for R value (DMSO/fragment) for probe 1 labeling / isoTOP-ABPP ratio (R) at liganded lysine Q6NUQ1_K771 / isoTOP-ABPP reactivity ratio at lysine Q6NUQ1_K771: 50 uM, in vitro; for R value (DMSO/fragment) for probe 1 labeling / isoTOP-ABPP reactivity ratio at lysine Q6NUQ1_K771: 231 sol; for isoTOP-ABPP ratio (R) at liganded lysine Q6NUQ1_K771: sol, 231
T2 construct: isoTOP-ABPP experiments performed in cell lysates (in vitro); endogenous in cells; host or cells: soluble proteome of human cancer cell lines (MDA-MB-231; Ramos and Jurkat also prepared)
In short: as §1

[3] = target: T3, TRMT10C Mitochondrial ribonuclease P protein 1 (Homo sapiens, UniProt Q7L0Y3); conditions: for R value (DMSO/fragment) for probe 1 labeling: Q7L0Y3_K325; for R value (DMSO/fragment) for probe 1 labeling / isoTOP-ABPP ratio (R) at liganded lysine Q7L0Y3_K325 / isoTOP-ABPP reactivity ratio at lysine Q7L0Y3_K325: 50 uM, in vitro; for R value (DMSO/fragment) for probe 1 labeling / isoTOP-ABPP reactivity ratio at lysine Q7L0Y3_K325: 231 sol; for isoTOP-ABPP ratio (R) at liganded lysine Q7L0Y3_K325: sol, 231
T3 construct: isoTOP-ABPP experiments performed in cell lysates (in vitro); endogenous in cells; host or cells: soluble proteome of human cancer cell lines (MDA-MB-231; Ramos and Jurkat also prepared)
T3 sequence (Q7L0Y3 40-403): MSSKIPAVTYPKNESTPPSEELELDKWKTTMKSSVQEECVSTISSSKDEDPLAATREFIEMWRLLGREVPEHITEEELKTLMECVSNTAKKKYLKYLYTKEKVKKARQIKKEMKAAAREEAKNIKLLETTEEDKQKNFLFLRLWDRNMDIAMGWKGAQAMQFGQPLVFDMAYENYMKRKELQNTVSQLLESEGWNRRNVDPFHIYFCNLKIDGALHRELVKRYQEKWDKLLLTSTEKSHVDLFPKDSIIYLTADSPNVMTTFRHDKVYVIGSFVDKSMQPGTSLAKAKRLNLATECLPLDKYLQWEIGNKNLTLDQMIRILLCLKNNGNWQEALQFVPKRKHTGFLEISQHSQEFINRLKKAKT
In short: as §1

T2 sequence (Q6NUQ1 whole entry, the tested form may be a part): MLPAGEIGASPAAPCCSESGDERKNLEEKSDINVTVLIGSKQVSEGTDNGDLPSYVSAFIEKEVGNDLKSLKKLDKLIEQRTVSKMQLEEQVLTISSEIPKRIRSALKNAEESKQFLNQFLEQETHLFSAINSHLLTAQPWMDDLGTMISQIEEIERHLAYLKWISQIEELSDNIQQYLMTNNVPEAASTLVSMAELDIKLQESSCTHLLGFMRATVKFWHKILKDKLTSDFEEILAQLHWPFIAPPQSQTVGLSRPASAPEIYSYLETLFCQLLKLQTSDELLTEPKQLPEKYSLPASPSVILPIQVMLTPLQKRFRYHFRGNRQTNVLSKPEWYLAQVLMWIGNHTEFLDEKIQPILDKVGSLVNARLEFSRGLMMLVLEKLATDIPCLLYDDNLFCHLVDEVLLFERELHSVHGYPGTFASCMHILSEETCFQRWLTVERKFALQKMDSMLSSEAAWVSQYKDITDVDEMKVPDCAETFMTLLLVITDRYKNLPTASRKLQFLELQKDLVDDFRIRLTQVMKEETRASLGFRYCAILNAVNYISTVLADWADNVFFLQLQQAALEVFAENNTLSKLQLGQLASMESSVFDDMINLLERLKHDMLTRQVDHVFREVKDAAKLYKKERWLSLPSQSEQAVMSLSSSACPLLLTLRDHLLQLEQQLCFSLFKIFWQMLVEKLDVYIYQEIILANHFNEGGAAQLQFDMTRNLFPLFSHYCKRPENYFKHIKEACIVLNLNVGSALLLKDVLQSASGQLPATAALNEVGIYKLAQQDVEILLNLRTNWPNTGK

Compound	isoTOP-ABPP ratio (R) at liganded lysine O43747_K214 [1]	isoTOP-ABPP ratio (R) at liganded lysine Q6NUQ1_K771 [2]	isoTOP-ABPP ratio (R) at liganded lysine Q7L0Y3_K325 [3]	isoTOP-ABPP reactivity ratio at lysine O43747_K214 [1]	isoTOP-ABPP reactivity ratio at lysine Q6NUQ1_K771 [2]	isoTOP-ABPP reactivity ratio at lysine Q7L0Y3_K325 [3]	further results
COc1cc(CCC(=O)Oc2c(F)c(F)c(F)c(F)c2F)cc(OC)c1OC [fragment 23, Pentafluorophenyl 3-(3,4,5-trimethoxyphenyl)propanoate]							R value (DMSO/fragment) for probe 1 labeling [1]: 1.1; R value (DMSO/fragment) for probe 1 labeling [2]: 1.1; R value (DMSO/fragment) for probe 1 labeling [3]: 1.3
O=C(Oc1ccc([N+](=O)[O-])cc1[N+](=O)[O-])c1ccccc1Nc1cccc(C(F)(F)F)c1 [fragment 40, 2,4-Dinitrophenyl 2-((3-(trifluoromethyl)phenyl)amino)benzoate]	0.9	1.1	0.9				
O=C(ON1C(=O)CCC1=O)c1cc(C(F)(F)F)cc(C(F)(F)F)c1 [fragment 46, 3,5-Bis(trifluoromethyl)benzoic acid NHS ester]							isoTOP-ABPP ratio, lysine O43747_K214 ([1]; 50 uM_231_sol_in vitro): 1.0; isoTOP-ABPP ratio, lysine Q6NUQ1_K771 ([2]; 50 uM_231_sol_in vitro): 20.0; isoTOP-ABPP ratio, lysine Q7L0Y3_K325 ([3]; 50 uM_231_sol_in vitro): 1.0
O=C(Oc1ccc([N+](=O)[O-])cc1[N+](=O)[O-])c1ccc(Oc2ccccc2)cc1 [fragment 39, 2,4-Dinitrophenyl 4-phenoxybenzoate]	0.8	1.5	0.9				
O=C(Oc1c(F)c(F)c(F)c(F)c1F)c1ccc2ccccc2n1 [fragment 25, Pentafluorophenyl quinoline-2-carboxylate]				1.0	1.4	1.1	
O=C(Oc1ccc([N+](=O)[O-])cc1[N+](=O)[O-])C(c1ccccc1)c1ccccc1 [fragment 30, 2,4-Dinitrophenyl 2,2-diphenylacetate]				1.1	1.7	1.1	
O=C(Oc1ccc([N+](=O)[O-])cc1[N+](=O)[O-])c1cc(C(F)(F)F)cc(C(F)(F)F)c1 [fragment 31, 2,4-Dinitrophenyl 3,5-bis(trifluoromethyl)benzoate]				0.9	20.0	1.1	
CC(=O)Oc1ccc([N+](=O)[O-])cc1[N+](=O)[O-] [fragment 43, 2,4-Dinitrophenyl acetate]	1.1	1.0	1.0				
O=C(Oc1ccc([N+](=O)[O-])cc1[N+](=O)[O-])C(c1ccccc1)(c1ccccc1)c1ccccc1 [fragment 42, 2,4-Dinitrophenyl 2,2,2-triphenylacetate]	0.8	1.1	1.0				
O=C(Oc1c(F)c(F)c(F)c(F)c1F)c1cc(C(F)(F)F)cc(C(F)(F)F)c1 [fragment 21, Pentafluorophenyl 3,5-bis(trifluoromethyl)benzoate]							R value (DMSO/fragment) for probe 1 labeling [1]: 0.9; R value (DMSO/fragment) for probe 1 labeling [2]: 2.2; R value (DMSO/fragment) for probe 1 labeling [3]: 0.9
Cn1cc(CC(=O)Oc2ccc([N+](=O)[O-])cc2[N+](=O)[O-])c2ccccc21 [fragment 32, 2,4-Dinitrophenyl 2-(1-methyl-1H-indol-3-yl)acetate]				6.6	1.2	1.0	
O=C(CCc1cn(-c2ccccc2)nc1-c1ccccc1)Oc1ccc([N+](=O)[O-])cc1[N+](=O)[O-] [fragment 29, 2,4-Dinitrophenyl 3-(1,3-diphenyl-1H-pyrazol-4-yl)propanoate]				1.0	1.2	0.7	
O=C(Oc1c(F)c(F)c(F)c(F)c1F)C1CCN(C(=O)OCc2ccccc2)CC1 [fragment 24, 1-Benzyl 4-(pentafluorophenyl) piperidine-1,4-dicarboxylate]				1.0	1.0	1.4	
NC(=O)c1cc(C(F)(F)F)cc(C(F)(F)F)c1 [fragment 51, reference compound]							isoTOP-ABPP ratio, lysine O43747_K214 ([1]; 50 uM_231_sol_in vitro): 0.9; isoTOP-ABPP ratio, lysine Q6NUQ1_K771 ([2]; 50 uM_231_sol_in vitro): 0.9; isoTOP-ABPP ratio, lysine Q7L0Y3_K325 ([3]; 50 uM_231_sol_in vitro): 0.9
N#Cc1ccc(C(=O)Oc2ccc([N+](=O)[O-])cc2[N+](=O)[O-])cc1 [fragment 44, 2,4-Dinitrophenyl 4-cyanobenzoate]							isoTOP-ABPP ratio, lysine O43747_K214 ([1]; 50 uM_231_sol_in vitro): 0.9; isoTOP-ABPP ratio, lysine Q6NUQ1_K771 ([2]; 50 uM_231_sol_in vitro): 1.7; isoTOP-ABPP ratio, lysine Q7L0Y3_K325 ([3]; 50 uM_231_sol_in vitro): 1.3
O=C(Oc1ccc([N+](=O)[O-])cc1[N+](=O)[O-])C1CCN(C(=O)OCc2ccccc2)CC1 [fragment 34, 1-Benzyl 4-(2,4-dinitrophenyl) piperidine-1,4-dicarboxylate]	1.7	1.3	1.0				
O=C(CC12CC3CC(CC(C3)C1)C2)Oc1ccc([N+](=O)[O-])cc1[N+](=O)[O-] [fragment 38, 2,4-Dinitrophenyl 2-(adamantan-1-yl)acetate]	0.9	1.2	0.8				
CC(C)(C)OC(=O)N=C(NC(=O)OC(C)(C)C)n1cccn1 [fragment 50, reference compound]							isoTOP-ABPP ratio, lysine O43747_K214 ([1]; 100 uM_231_sol_in vitro): 1.0; isoTOP-ABPP ratio, lysine Q6NUQ1_K771 ([2]; 100 uM_231_sol_in vitro): 1.1; isoTOP-ABPP ratio, lysine Q7L0Y3_K325 ([3]; 100 uM_231_sol_in vitro): 6.2
O=C(Oc1c(F)c(F)c(C(F)(F)F)c(F)c1F)c1cc(C(F)(F)F)cc(C(F)(F)F)c1 [fragment 47, 2,3,5,6-Tetrafluoro-4-(trifluoromethyl)phenyl 3,5-bis(trifluoromethyl)benzoate]							isoTOP-ABPP ratio, lysine O43747_K214 ([1]; 50 uM_231_sol_in vitro): 0.8; isoTOP-ABPP ratio, lysine Q6NUQ1_K771 ([2]; 50 uM_231_sol_in vitro): 1.2; isoTOP-ABPP ratio, lysine Q7L0Y3_K325 ([3]; 50 uM_231_sol_in vitro): 1.1
COC(=O)NC(=NC(=O)OCC1c2ccccc2-c2ccccc21)n1cccn1 [fragment 49, N-Methoxycarbonyl-N′-9-fluorenylmethoxycarbonyl-pyrazole-1-carboxamidine]							isoTOP-ABPP ratio, lysine O43747_K214 ([1]; 100 uM_231_sol_in vitro): 1.0; isoTOP-ABPP ratio, lysine Q6NUQ1_K771 ([2]; 100 uM_231_sol_in vitro): 1.1; isoTOP-ABPP ratio, lysine Q7L0Y3_K325 ([3]; 100 uM_231_sol_in vitro): 1.2
